9 molecules from paper PMC2745609 (Journal of medicinal chemistry, 2009) can be followed below.

For orientation: IC50 means the concentration that inhibits the measured activity by half. A word on the Ki: it is the equilibrium dissociation constant of an inhibitor or competing ligand from its target. A lower Ki goes with a stronger hold on the target.

In experiment [1] the target is HIV-1 protease (Human immunodeficiency virus type 1 group M subtype B, UniProt P04585). As to the kind of experiment: HIV-1 protease enzyme inhibition. It is filed as biochemical. The settings on record: for fold improvement of enzyme Ki over 17a: relative to 17a.
Experiment [2] relates to HIV-1lai. As to the kind of experiment: Antiviral activity in MT-2 human T-lymphoid cells exposed to HIV-1LAI, MTT assay. It is filed as cell-based. Particulars: for IC50: Human immunodeficiency virus 1, MT2, in Homo sapiens.
The subject of experiment [3] is HIV-1ERS104pre (wild-type). As to the kind of experiment: Anti-HIV activity in PHA-PBM, p24 Gag production, wild-type clinical isolate. It is filed as cell-based. Particulars: Human immunodeficiency virus 1, PBMC, read-out: IC50 against HIV-1ERS104pre.

In the case of `COc1ccc(S(=O)(=O)N(C[C@@H]2CCC(=O)N2)C[C@@H](O)[C@H](Cc2ccccc2)NC(=O)O[C@@H]2C[C@@H]3CCO[C@@H]3C2)cc1` [Inhibitor 17b, (3aS,5R,6aR)-Hexahydro-2H–cyclopenta[b]furan-5-yl-(2S,3R)-3-hydroxy-4-(4-methoxy-N-(((S)-5-oxopyrrolidin-2-yl)methyl)phenylsulfonamido)-1-phenylbutan-2-ylcarbamate], the “fold improvement of enzyme Ki over 17a” value in experiment [1] was 3 fold.

In experiment [2], `Nc1ccc(S(=O)(=O)N(C[C@@H]2CCC(=O)N2)C[C@@H](O)[C@H](Cc2ccccc2)NC(=O)O[C@H]2CO[C@H]3OCC[C@H]32)cc1` [Inhibitor 18a, (3R,3aS,6aR)-Hexahydrofuro[2,3-b]furan-3-yl(2S,3R)-4-(4-amino-N-(((S)-5-oxopyrrolidin-2-yl)methyl)phenylsulfonamido)-3-hydroxy-1-phenylbutan-2-ylcarbamate] displayed an IC50 above 1 µM.

`Nc1ccc(S(=O)(=O)N(C[C@@H]2COC(=O)N2)C[C@@H](O)[C@H](Cc2ccccc2)NC(=O)O[C@H]2CO[C@H]3OCC[C@H]32)cc1` [Inhibitor 30, (3R,3aS,6aR)-hexahydrofuro[2,3-b]furan-3-yl-(2S,3R)-4-(4-amino-N-(((R)-2-oxooxazolidin-4-yl)methyl)phenylsulfonamido)-3-hydroxy-1-phenylbutan-2-ylcarbamate] returned an IC50 in experiment [2] above 1 µM.

`CC(C)CN(C[C@@H](O)[C@H](Cc1ccccc1)NC(=O)O[C@H]1CCOC1)S(=O)(=O)c1ccc(N)cc1` [amprenavir, reference compound]: the IC50 in experiment [2] was 0.03 µM; in experiment [3] it was 0.025 µM.

With `COc1ccc(S(=O)(=O)N(C[C@H]2CCC(=O)N2)C[C@@H](O)[C@H](Cc2ccccc2)NC(=O)O[C@@H]2C[C@@H]3CCO[C@@H]3C2)cc1` [Inhibitor 19b, (3aS,5R,6aR)-Hexahydro-2H–cyclopenta[b]furan-5-yl-(2S,3R)-3-hydroxy-4-(4-methoxy-N-(((R)-5-oxopyrrolidin-2-yl)methyl)phenylsulfonamido)-1-phenylbutan-2-ylcarbamate], the “fold improvement in antiviral activity relative to 17b” value in experiment [2] (relative to epimeric (S)-pyrrolidinone derivative 17b) was 10 fold. Moreover, in experiment [3], the IC50 amounted to 0.028 µM.

In the case of `COc1ccc(S(=O)(=O)N(C[C@@H]2CCC(=O)N2)C[C@@H](O)[C@H](Cc2ccccc2)NC(=O)O[C@H]2CO[C@H]3OCC[C@H]32)cc1` [Inhibitor 17a, (3R,3aS,6aR)-Hexahydrofuro[2,3-b]furan-3-yl(2S,3R)-3-hydroxy-4-(4-methoxy-N-(((S)-5-oxopyrrolidin-2-yl)methyl)phenylsulfonamido)-1-phenylbutan-2-yl-carbamate], the Ki in experiment [1] (Ki (nM), enzyme inhibitory potency) is 1 nM.

For `CC(C)(C)NC(=O)[C@@H]1CN(Cc2cccnc2)CCN1C[C@@H](O)C[C@@H](Cc1ccccc1)C(=O)N[C@H]1c2ccccc2C[C@H]1O` [indinavir, reference compound], the values for the IC50 in experiment [2] and in experiment [3] were 0.03 µM and 0.028 µM, respectively.

As for `COc1ccc(S(=O)(=O)N(C[C@H]2CCC(=O)N2)C[C@@H](O)[C@H](Cc2ccccc2)NC(=O)O[C@H]2CO[C@H]3OCC[C@H]32)cc1` [Inhibitor 19a, (3R,3aS,6aR)-Hexahydrofuro[2,3-b]furan-3-yl(2S,3R)-3-hydroxy-4-(4-methoxy-N-(((R)-5-oxopyrrolidin-2-yl)methyl)phenylsulfonamido)-1-phenylbutan-2ylcarbamate], the “fold improvement of enzyme Ki over 17a” value in experiment [1] worked out at 10 fold.

For the molecule `CC(C)(C)NC(=O)[C@@H]1C[C@@H]2CCCC[C@@H]2CN1C[C@@H](O)[C@H](Cc1ccccc1)NC(=O)[C@H](CC(N)=O)NC(=O)c1ccc2ccccc2n1` [saquinavir, reference compound], the IC50 in experiment [2] is 0.015 µM.
